We go through nine molecules from patent publication US20140057895A1, “INDAZOLE- AND PYRROLOPYRIDINE-DERIVATIVE AND PHARMACEUTICAL USE THEREOF” (priority 2011, published 2014).

Test [1] concerns the target T1, Human 5-HT4 receptor (5-HT4b) (Homo sapiens, UniProt Q13639).
T1 construct: expressed in transfected cells; membrane preparation
The experiment in a line: Test Example 3: Human 5-HT4 receptor binding assay, membranes of CHO-K1 cells stably expressing 5-HT4b receptors (Table 99). To be noted: mean value of each group. In a few lines:
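Radioligand displacement: [3H]-GR113808 (0.1 nM) bound to CHO-K1 5-HT4b membranes for 30 min at 37 °C in Hepes buffer (50 mM, pH 7.4). Specific binding is total minus that with 30 μM serotonin; filter-bound radioactivity counted, IC50 derived from percent inhibition.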

The target of a further test is T2, human 5-HT4b receptor (Homo sapiens, UniProt Q13639).
T2 construct: expressed in transfected cells; host or cells: CHO cells (G418 selection)
T2 sequence (Q13639 whole entry): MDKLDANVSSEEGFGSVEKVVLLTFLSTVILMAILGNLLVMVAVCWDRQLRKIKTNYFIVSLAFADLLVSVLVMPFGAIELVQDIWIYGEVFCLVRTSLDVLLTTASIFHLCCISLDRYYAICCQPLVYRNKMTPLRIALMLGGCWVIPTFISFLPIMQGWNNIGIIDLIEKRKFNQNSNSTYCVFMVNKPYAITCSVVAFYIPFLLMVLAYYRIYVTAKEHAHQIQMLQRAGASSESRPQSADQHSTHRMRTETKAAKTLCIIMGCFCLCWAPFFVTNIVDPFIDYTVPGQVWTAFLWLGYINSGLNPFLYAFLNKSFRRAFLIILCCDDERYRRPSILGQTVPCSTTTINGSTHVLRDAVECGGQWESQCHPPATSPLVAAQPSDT
Briefly: Test Example 4: Serotonin 4 (5-HT4) receptor agonist activity assay, cAMP HTRF in CHO cells (Table 100). Format: cell-based. To be noted: mean value; for Emax: CHO, 0.25 h, intrinsic activity, maximal activity of 5-HT defined as 100%, read-out: IA (%); for EC50: concentration showing 50% of IA. In a few lines: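 Read-out is HTRF cAMP (time-resolved fluorescence 620/665 nm after 1 h RT with cAMP-cryptate and cAMP-d2), from recombinant CHO cells bearing human 5-HT4b treated with compound 15 min at 31° C. in Hanks/HEPES buffer pH 7.4. IA (%) scaled to peak 5-HT effect over 10^−11–10^−7 M; EC50 is concentration giving half that IA.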

T1 sequence (Q13639 whole entry): as above

Molecule `CC(C)c1nn(-c2noc(C3CCN(C4(C)CCN(C(=O)CO)CC4)CC3)n2)c2c(F)cccc12` [Example 537, 1-(4-{3-[7-fluoro-3-(propan-2-yl)-1H-indazol-1-yl]-1,2,4-oxadiazol-5-yl}-4′-methyl-1,4′-bipiperidin-1′-yl)-2-hydroxyethanone] came in with an IC50 in test [1] below 20 nM. For the same molecule, at human 5-HT4b receptor, the Emax is 111% and a half-maximal response (EC50) required 1.3 nM.
For `CCc1nn(-c2noc(C3CCN(C4(C)CCN(C(=O)CO)CC4)CC3)n2)c2c(F)cccc12` [Example 538, 1-{4-[3-(3-ethyl-7-fluoro-1H-indazol-1-yl)-1,2,4-oxadiazol-5-yl]-4′-methyl-1,4′-bipiperidin-1′-yl}-2-hydroxyethanone] the same measures were below 20 nM, 76% and 2.4 nM.
In the case of `CC(C)c1nn(-c2noc(C[C@H]3CCN(C4CCN(C(=O)CO)CC4)C3)n2)c2c(F)cccc12` [Example 539, 1-{4-[(3R)-3-({3-[7-fluoro-3-(propan-2-yl)-1H-indazol-1-yl]-1,2,4-oxadiazol-5-yl}methyl)pyrrolidin-1-yl]piperidin-1-yl}-2-hydroxyethanone], the half-inhibitory concentration (IC50) in test [1] was below 20 nM. Also, at human 5-HT4b receptor, the Emax turned out to be 75% and the midpoint of the response, the EC50, lay at 2.6 nM.
For `CC(C)c1nn(-c2noc(C[C@H]3CCN(C[C@@H]4CCCN4C(=O)CO)C3)n2)c2c(F)cccc12` [Example 540, 1-[(2S)-2-{[(3R)-3-({3-[7-fluoro-3-(propan-2-yl)-1H-indazol-1-yl]-1,2,4-oxadiazol-5-yl}methyl)pyrrolidin-1-yl]methyl}pyrrolidin-1-yl]-2-hydroxyethanone] the same measures were 78.1 nM, 106% and 15.3 nM.
For `CC(C)c1nn(-c2noc(C[C@H]3CCN(C[C@H]4CCCN4C(=O)CO)C3)n2)c2c(F)cccc12` [Example 541, 1-[(2R)-2-{[(3R)-3-({3-[7-fluoro-3-(propan-2-yl)-1H-indazol-1-yl]-1,2,4-oxadiazol-5-yl}methyl)pyrrolidin-1-yl]methyl}pyrrolidin-1-yl]-2-hydroxyethanone] the same measures were 35.8 nM, 79% and 9 nM.
As for `CC(C)c1nn(-c2noc(C[C@H]3CCN(CC4CN(C(=O)CO)C4)C3)n2)c2c(F)cccc12` [Example 542, 1-(3-{[(3R)-3-({3-[7-fluoro-3-(propan-2-yl)-1H-indazol-1-yl]-1,2,4-oxadiazol-5-yl}methyl)pyrrolidin-1-yl]methyl}azetidin-1-yl)-2-hydroxyethanone], the IC50 in test [1] is below 20 nM. Also, at human 5-HT4b receptor, the Emax amounted to 90% and a half-maximal effect (EC50) was put at 3.3 nM.
Molecule `CC(C)c1nn(-c2noc(C[C@H]3CCN(C[C@@H]4CCN(C(=O)CO)C4)C3)n2)c2c(F)cccc12` [Example 543, 1-[(3S)-3-{[(3R)-3-({3-[7-fluoro-3-(propan-2-yl)-1H-indazol-1-yl]-1,2,4-oxadiazol-5-yl}methyl)pyrrolidin-1-yl]methyl}pyrrolidin-1-yl]-2-hydroxyethanone] yielded an IC50 in test [1] below 20 nM. Further, at human 5-HT4b receptor, the Emax was determined as 92% and the EC50 stood at 3.7 nM.
In test [1], `CC(C)c1nn(-c2noc(C[C@H]3CCN(C[C@H]4CCN(C(=O)CO)C4)C3)n2)c2c(F)cccc12` [Example 544, 1-[(3R)-3-{[(3R)-3-({3-[7-fluoro-3-(propan-2-yl)-1H-indazol-1-yl]-1,2,4-oxadiazol-5-yl}methyl)pyrrolidin-1-yl]methyl}pyrrolidin-1-yl]-2-hydroxyethanone] showed a 50% inhibitory concentration (IC50) below 20 nM. Moreover, at human 5-HT4b receptor, the Emax was found to be 58% and a half-maximal response (EC50) required 4.7 nM.
With `CC(C)c1nn(-c2noc(C[C@@H]3CCN(C4CCN(C(=O)CO)CC4)C3)n2)c2c(F)cccc12` [Example 545, 1-{4-[(3S)-3-({3-[7-fluoro-3-(propan-2-yl)-1H-indazol-1-yl]-1,2,4-oxadiazol-5-yl}methyl)pyrrolidin-1-yl]piperidin-1-yl}-2-hydroxyethanone], the 50% inhibitory concentration (IC50) in test [1] is below 20 nM. Further, on human 5-HT4b receptor, the Emax stood at 60% and the half-maximal effective concentration (EC50) came out at 5.5 nM.
